For this experiment, the system named is Plasmodium berghei. Kind of experiment: Luciferase/luciferin-expressing antifolate-resistant parasites were used to infect a culture of HepG2 cells that were pre-incubated with compounds. Infected hepatocytes emit light due to the luciferase reaction. Assay results are presented as the percent inhibition of light emission compared to control. […]. Type of experiment: functional. Particulars: sporozoite; for IC90: read-out: LUCIFERASE INFECTION ASSAY - IC90.

Consider `FC(F)(F)c1nc2ccccc2n2c(-c3ccc(Cl)cc3)nnc12`, for which the IC90 came to 3.27 µM. In addition, the half-maximal inhibitory concentration (IC50) (HEPG2TOX_HILL_SLOPE 11.7, HEPG2TOX_R_SQUARED 0.937, PBLUC_HILL_SLOPE 49.4, PBLUC_R_SQUARED 0.195, read-out: LUCIFERASE INFECTION ASSAY - IC50) stood at 3.13 µM.
On to `COc1ccccc1C(=O)/C=C/c1ccc(N2CCCCC2)c([N+](=O)[O-])c1`, for which the IC90 was above 10 µM. The IC50 (HEPG2TOX_HILL_SLOPE 11.8, HEPG2TOX_R_SQUARED 0.223, read-out: LUCIFERASE INFECTION ASSAY - IC50) is above 10 µM.
In the case of `CC1CCCC(C)N1CC(O)COC1CCC(C(C)(C)C)CC1` (stereo unspecified), the IC90 was 3.62 µM. The IC50 (HEPG2TOX_HILL_SLOPE 11.8, HEPG2TOX_R_SQUARED 0.0956, PBLUC_HILL_SLOPE 13.2, PBLUC_R_SQUARED 0.651, read-out: LUCIFERASE INFECTION ASSAY - IC50) came out at 3.06 µM.
Consider `Cc1ccc(SC(=O)c2c(C)noc2-c2ccc(Cl)cc2)cc1`, for which the IC90 was above 9.6 µM. Further, the IC50 (HEPG2TOX_HILL_SLOPE 11.7, HEPG2TOX_R_SQUARED 0.856, PBLUC_HILL_SLOPE 3.58, PBLUC_R_SQUARED 0.522, read-out: LUCIFERASE INFECTION ASSAY - IC50) worked out at 7.62 µM.
As for `CN(CC(=O)Nc1cccc(F)c1)C(=O)c1csc(COc2ccc(Cl)cc2)n1`, the IC90 is 6.38 µM. In addition, where the note is “HEPG2TOX_HILL_SLOPE 11.6, HEPG2TOX_R_SQUARED 0.266, PBLUC_HILL_SLOPE 151, PBLUC_R_SQUARED 0.192, read-out: LUCIFERASE INFECTION ASSAY - IC50”, the IC50 was 6.29 µM.
As to `FC(F)(F)c1cc(Nc2nc(C(F)(F)F)cs2)cc(C(F)(F)F)c1`, the IC90 is 3.63 µM. The IC50 (HEPG2TOX_HILL_SLOPE 11.5, HEPG2TOX_R_SQUARED 0.969, PBLUC_HILL_SLOPE 12.1, PBLUC_R_SQUARED 0.577, read-out: LUCIFERASE INFECTION ASSAY - IC50) worked out at 3.03 µM.
For `CC(=O)Nc1ccc(-c2ccnc3n[nH]c(-c4ccsc4)c23)cc1`, the IC90 was determined as 8.76 µM. The IC50 (HEPG2TOX_HILL_SLOPE 11.6, HEPG2TOX_R_SQUARED 0.801, PBLUC_HILL_SLOPE 2.91, PBLUC_R_SQUARED 0.114, read-out: LUCIFERASE INFECTION ASSAY - IC50) is 4.12 µM.
Take `COC(=O)c1c(NC(=O)c2cccnc2)c2cc(NCc3ccco3)cnc2n1Cc1ccccc1`: the IC90 is above 6.85 µM. Under “HEPG2TOX_HILL_SLOPE 11.5, HEPG2TOX_R_SQUARED 0.854, PBLUC_HILL_SLOPE 4.03, PBLUC_R_SQUARED 0.534, read-out: LUCIFERASE INFECTION ASSAY - IC50”, the IC50 was 4.51 µM.
With `COc1ccccc1C(=O)c1cnc(Nc2cccc(Cc3ccccc3)c2)[nH]1`, the IC90 is above 8.61 µM. Further, the IC50 (HEPG2TOX_HILL_SLOPE 11.7, HEPG2TOX_R_SQUARED 0.773, PBLUC_HILL_SLOPE 15.1, PBLUC_R_SQUARED 0.204, read-out: LUCIFERASE INFECTION ASSAY - IC50) was found to be 7.82 µM.
In the case of `O=[N+]([O-])c1cc(C(F)(F)F)ccc1Sc1nnc(-c2cc(Cl)cc(Cl)c2)[nH]1`, the 90% effect concentration (IC90) was found to be 7.2 µM. The IC50 (HEPG2TOX_HILL_SLOPE 11.8, HEPG2TOX_R_SQUARED 0.697, PBLUC_HILL_SLOPE 13.2, PBLUC_R_SQUARED 0.063, read-out: LUCIFERASE INFECTION ASSAY - IC50) stood at 6.09 µM.
Turning to `Cc1cc(O)cc2c1C(=O)/C(=C/c1ccc(Cl)cc1)O2`, the IC90 was found to be 8.29 µM. Under “HEPG2TOX_HILL_SLOPE 11.8, HEPG2TOX_R_SQUARED 0.8, PBLUC_HILL_SLOPE 6.24, PBLUC_R_SQUARED 0.404, read-out: LUCIFERASE INFECTION ASSAY - IC50”, the IC50 was 5.83 µM.
For the compound `C(=C(c1nc2ccccc2s1)c1nc2ccccc2s1)c1ccncc1`, the IC90 was found to be 6.3 µM. The IC50 (HEPG2TOX_HILL_SLOPE 11.7, HEPG2TOX_R_SQUARED 0.737, PBLUC_HILL_SLOPE 3.59, 2.80, PBLUC_R_SQUARED 0.729, 0.898, read-out: LUCIFERASE INFECTION ASSAY - IC50) was determined as 3.12 µM.
For `Cc1ccc(NC(=O)Cn2nnc(-c3ccccc3)n2)cc1S(=O)(=O)N1CCCCCC1`, the IC90 is above 10 µM. Besides, for the setting “HEPG2TOX_HILL_SLOPE 11.8, HEPG2TOX_R_SQUARED 0.86, PBLUC_HILL_SLOPE 22, PBLUC_R_SQUARED 0.334, read-out: LUCIFERASE INFECTION ASSAY - IC50”, the IC50 is 9.07 µM.
Consider `COc1ccc(-c2cncc(-c3ccc(O)c(OC)c3)n2)cc1`, for which the IC90 was 0.463 µM. Also, the IC50 (HEPG2TOX_HILL_SLOPE 11.5, HEPG2TOX_R_SQUARED 0.964, PBLUC_HILL_SLOPE 4.2, PBLUC_R_SQUARED 0.828, read-out: LUCIFERASE INFECTION ASSAY - IC50) turned out to be 0.274 µM.
Turning to `C=c1ccccc1=C1NN=C(Sc2cnn(-c3ccc(C(F)(F)F)cn3)c(=O)c2Cl)N1CC`, the IC90 was 5.32 µM. Besides, the IC50 (HEPG2TOX_HILL_SLOPE 11.7, 13.0, HEPG2TOX_R_SQUARED 0.881, 0.478, PBLUC_HILL_SLOPE 8.47, PBLUC_R_SQUARED 0.136, read-out: LUCIFERASE INFECTION ASSAY - IC50) was determined as 4.11 µM.
Regarding `CCCCCn1c(Sc2ncc([N+](=O)[O-])s2)n[nH]c1=O`, the IC90 is above 10.5 µM. Besides, the IC50 (HEPG2TOX_HILL_SLOPE 11.8, HEPG2TOX_R_SQUARED 0.641, PBLUC_HILL_SLOPE 4, PBLUC_R_SQUARED 0.202, read-out: LUCIFERASE INFECTION ASSAY - IC50) amounted to 7 µM.
In the case of `Cc1cc(Cl)ccc1OCc1nnc(-c2ccccn2)[nH]1`, the IC90 was determined as 3.63 µM. Further, the IC50 (HEPG2TOX_HILL_SLOPE 11.7, HEPG2TOX_R_SQUARED 0.29, PBLUC_HILL_SLOPE 34.3, PBLUC_R_SQUARED 0.372, read-out: LUCIFERASE INFECTION ASSAY - IC50) turned out to be 3.41 µM.
Regarding `O=C(Nc1cccc(Cl)c1)c1cccc(NC(=O)c2cccs2)c1`, the IC90 worked out at 9.24 µM. Besides, under “HEPG2TOX_HILL_SLOPE 11.6, HEPG2TOX_R_SQUARED 0.635, PBLUC_HILL_SLOPE 2.89, PBLUC_R_SQUARED 0.488, read-out: LUCIFERASE INFECTION ASSAY - IC50”, the IC50 worked out at 4.32 µM.
On to `CCN1CCC[C@H]1CNC(=O)C(C)c1ccc2c(c1)[nH]c1ccc(Cl)cc12` (stereo partly specified), for which the IC90 stood at 5.54 µM. For the same compound, the IC50 (HEPG2TOX_HILL_SLOPE 11.5, HEPG2TOX_R_SQUARED 0.93, PBLUC_HILL_SLOPE 6.18, PBLUC_R_SQUARED 0.807, read-out: LUCIFERASE INFECTION ASSAY - IC50) was 3.88 µM.
With `CCCNC(=O)/C(=C\c1cccc(Br)c1)c1nc2ccccc2[nH]1`, the IC90 was found to be 9.54 µM. Further, where the note is “HEPG2TOX_HILL_SLOPE 11.6, HEPG2TOX_R_SQUARED 0.535, PBLUC_HILL_SLOPE 4.15, PBLUC_R_SQUARED 0.775, read-out: LUCIFERASE INFECTION ASSAY - IC50”, the IC50 came out at 5.62 µM.
As for `O=C(Nc1cc(Cl)cc(Cl)c1)Nc1cccnc1N1CCC(C(F)(F)F)CC1`, the IC90 stood at 2.83 µM. Besides, the IC50 (HEPG2TOX_HILL_SLOPE 11.8, HEPG2TOX_R_SQUARED 0.784, PBLUC_HILL_SLOPE 19.7, PBLUC_R_SQUARED 0.439, read-out: LUCIFERASE INFECTION ASSAY - IC50) came out at 2.53 µM.
On to `CS(=O)(=O)c1ccc(C(=O)Nc2ccc(S(=O)(=O)NCc3ccco3)cc2)cc1[N+](=O)[O-]`, for which the IC90 is above 10 µM. The IC50 (HEPG2TOX_HILL_SLOPE 11.7, HEPG2TOX_R_SQUARED 0.595, read-out: LUCIFERASE INFECTION ASSAY - IC50) is above 10 µM.
For `O=C(Nc1ccccc1)Nc1ccc(C(=O)Nc2cc(C(F)(F)F)ccc2N2CCOCC2)s1`, the IC90 turned out to be 5.82 µM. Also, the IC50 (HEPG2TOX_HILL_SLOPE 11.7, HEPG2TOX_R_SQUARED 0.346, PBLUC_HILL_SLOPE 5.22, 24.2, PBLUC_R_SQUARED 0.290, 0.170, read-out: LUCIFERASE INFECTION ASSAY - IC50) amounted to 4.29 µM.
Turning to `CN(C)S(=O)(=O)c1ccc2oc(SCC(=O)Nc3cc(C(C)(C)C)no3)nc2c1`, the IC90 was found to be 3.96 µM. In addition, where the note is “HEPG2TOX_HILL_SLOPE 11.6, HEPG2TOX_R_SQUARED 0.793, PBLUC_HILL_SLOPE 13.5, PBLUC_R_SQUARED 0.437, read-out: LUCIFERASE INFECTION ASSAY - IC50”, the IC50 was found to be 3.36 µM.
As to `Cc1cccc(Cn2c(CN3CCCCC3)nc3ccccc32)c1`, the IC90 is 9.84 µM. For the same compound, for the setting “HEPG2TOX_HILL_SLOPE 11.8, HEPG2TOX_R_SQUARED 0.182, PBLUC_HILL_SLOPE 4.42, PBLUC_R_SQUARED 0.595, read-out: LUCIFERASE INFECTION ASSAY - IC50”, the 50% inhibitory concentration (IC50) came to 5.99 µM.
As for `Cn1c(-c2ccsc2)cc2c(Nc3ccc(Oc4ccccc4)cc3)nccc21`, the IC90 came to 3.44 µM. The IC50 (HEPG2TOX_HILL_SLOPE 11.7, HEPG2TOX_R_SQUARED 0.553, PBLUC_HILL_SLOPE 10.6, PBLUC_R_SQUARED 0.752, read-out: LUCIFERASE INFECTION ASSAY - IC50) was 2.8 µM.
Turning to `O=C1/C(=C/c2ccc(C(F)(F)F)cc2)CCC/C1=C\c1ccc(C(F)(F)F)cc1`, the IC90 worked out at 7.87 µM. The IC50 (HEPG2TOX_HILL_SLOPE 11.7, HEPG2TOX_R_SQUARED 0.984, PBLUC_HILL_SLOPE 3.19, PBLUC_R_SQUARED 0.77, read-out: LUCIFERASE INFECTION ASSAY - IC50) was found to be 3.95 µM.
For `O=C(Nc1ccc(SC(F)(F)F)cc1)Nc1cccnc1N1CCC(C(F)(F)F)CC1`, the IC90 amounted to 2.33 µM. Besides, the IC50 (HEPG2TOX_HILL_SLOPE 11.5, HEPG2TOX_R_SQUARED 0.688, PBLUC_HILL_SLOPE 15.9, PBLUC_R_SQUARED 0.276, read-out: LUCIFERASE INFECTION ASSAY - IC50) was 2.03 µM.

For orientation: IC50 means the concentration that gives 50% inhibition. As usually defined, the IC90 is the point of the concentration-response curve where the effect stands at 90%.
